Data as given in paper PMC7395068, “The evolution of strategies to minimise the risk of human drug-induced liver injury (DILI) in drug discovery and development” (Archives of Toxicology, 2020).
Where two headings read alike, the source gives them in different places.

How the values were obtained:
[1] = Plasma free fraction (fu) and unbound Cmax (Cmax,u); type: in vitro ADME, human; conditions: unbound plasma Cmax
Experimental: The prediction of DILI severity was evaluated further using the 3D combined HCI assays using plasma-free fraction. The majority of fu values were obtained from literature, when unavailable in-house prediction was utilised. Unbound plasma Cmax concentrations (Cmax,u) were derived by multiplying total plasma Cmax with the corresponding free fraction (fu) for each compound.

[2] = system: HepG2; design: method as in Albrecht 2019; conditions: In vitro Assay; ref Albrecht 2019; cited from earlier work
[3] = system: HepG2 cells; conditions: Structural based (HCI), HepG2; ref O'Brien et al. 2006; cited from earlier work
[4] = system: HepG2 cells; conditions: cited from earlier work
[5] = system: HepG2 cells; conditions: cited from earlier work; remark: listed apart in the source
[6] = system: THLE or HepG2 cells, isolated mitochondria, BSEP; conditions: cited from earlier work
[7] = system: PHH; conditions: cited from earlier work
[8] = system: hLiMTs; conditions: cited from earlier work
[9] = system: HepG2 C3A spheroid, BSEP, Glu/Gal in HepG2 cells, bioactivation; conditions: cited from earlier work
[10] = read-out: Human plasma Cmax; total plasma Cmax.tot, median of 9 literature references; cited from earlier work
[11] = plasma free fraction; cited from earlier work
[12] = cited from earlier work
[13] = system: PHH; conditions: In vitro Assay; ref Albrecht 2019; cited from earlier work
[14] = system: isolated mouse liver mitochondria; conditions: In vitro Assay; ref Porceddu 2012; cited from earlier work
[15] = system: hLiMTs; assay: Combined HCI (HCS) and cellular ATP 3D assay in hLiMTs; conditions: for AC50 / minimal effective concentration: Homo sapiens
[16] = system: HepaRG spheroids; assay: Combined HCI (HCS) and cellular ATP 3D assay in HepaRG spheroids
Experimental: 3D spheroid models consisting of either primary human hepatocytes with non-parenchymal cells (hLiMT’s) or HepaRG cells (HepaRG spheroids) were assessed for size (MS), oxidative stress (OS), MMP, mitochondrial mass (MM), GSH and cellular ATP content following drug exposure. Fluorescent images are acquired using the confocal mode of an ArrayScan™ XTI HCI reader (ThermoScientific) following which cellular ATP was measured using 3D CellTiter-Glo (Promega).

[17] = In vitro Assay, ref Persson 2013
[18] = Modeled in vitro assays (cytotoxicity, mitochondrial dysfunction, BSEP), ref Aleo et al. 2019
[19] = In vitro Assay, ref Proctor 2017
[20] = Microtissue model structural based (HCI), combined HCS and ATP, MEC < 25 × Cmax.tot cut-off

Compound: CC(=O)Oc1ccccc1C(=O)O [acetylsalicylic acid]
- Human plasma Cmax,u [1]: 538.224 µM
- Cytotoxicity HepG2 48 hrs [2]: +VE
- DILI in vitro assay prediction, O'Brien (2006) [3]: +VE (lowest HCI endpoint IC50 (or in the absence of dose–response < 100 µM) < 30 × total human plasma exposure levels (Cmax.tot))
- Cluser analysis [4, 17]: -VE
- Structural based (HCI) [4, 17]: -VE
- DILI in vitro assay prediction, Persson (2013) ([4]; Structural based (HCI), HepG2, ref Persson et al. 2013): -VE
- Structural based (HCI) ([5]; In vitro Assay, ref Tolosa 2012): +VE
- DILI in vitro assay prediction, Tolosa (2012) ([5]; Structural based (HCI), HepG2, ref Tolosa et al. 2012): +VE
- Partition Hybrid HRM Score ([6]; In vitro Assay, ref Aleo 2019): -VE
- Ro2 Hybrid HRM Score ([6]; In vitro Assay, ref Aleo 2019): -VE
- Partition Hybrid HRM Score ≥4, Aleo (2019) [6, 18]: -VE
- Partition Hybrid HRM Score ≥8, Aleo (2019) [6, 18]: -VE
- Rule of Two hybrid HRM Score ≥3, Aleo (2019) [6, 18]: -VE
- Rule of Two hybrid HRM Score ≥8, Aleo (2019) [6, 18]: -VE
- PHH/100xCmax, Proctor (2017) ([7]; 2D PHH, ATP, IC50 < 100 × Cmax.tot, ref Proctor et al. 2017): -VE
- PHH/100uM, Proctor (2017) ([7]; 2D PHH, ATP, IC50 threshold 100 µM, ref Proctor et al. 2017): -VE
- PHH ATP <100uM [7, 19]: -VE
- hLiMTs ATP <100uM [8, 19]: -VE
- hLiMTs/100xCmax, Proctor (2017) ([8]; hLiMTs, ATP, IC50 < 100 × Cmax.tot, ref Proctor et al. 2017): -VE
- hLiMTs/100uM, Proctor (2017) ([8]; hLiMTs, ATP, IC50 threshold 100 µM, ref Proctor et al. 2017): -VE
- Bayesian Machine Learning DILI prediction, Williams (2019) ([9]; Bayesian modeling, ref Williams et al. 2019): -VE
- Bayesian Machine Learning ([9]; In vitro Assay, ref Williams 2019): -VE
- Cmax [10]: 1380 µM
- fu [11]: 0.390
- Assigned DILI category ([12]; Chen et al. 2016 or literature alignment, ref Chen et al. 2016): 3
- In vivo DILI ([12]; […]): -VE
- In vivo DILI ([12]; ref Albrecht 2019): +VE
- In vivo DILI ([12]; ref Aleo 2019): +VE
- In vivo DILI ([12]; ref Persson 2013): +VE
- In vivo DILI ([12]; ref Porceddu 2012): +VE
- In vivo DILI ([12]; ref Proctor 2017): +VE
- In vivo DILI ([12]; ref Tolosa 2012): +VE
- In vivo DILI ([12]; ref Williams 2019): +VE
- Cytotoxicity PHH 48 hrs [13]: +VE
- in vitro data EC2<=1x Cmax [14]: +VE
- in vitro data EC20<=2uM [14]: -VE
- AC50 ([15]; read-out: ATP endpoint AC50): 3.25 mM
- minimal effective concentration ([15]; read-out: ATP endpoint MEC): 2270 µM
- AC50 ([15]; read-out: HCS endpoint AC50): 4.69 mM
- minimal effective concentration ([15]; read-out: HCS endpoint MEC): 1930 µM
- DILI prediction hLiMTs (HCS-MEC) [15, 20]: +VE (MEC < 25 × Cmax.tot cut-off)
- hLiMTs <25x Avg Cmax ATP ([15]; hLiMTs, ATP endpoint, cut-off <25x Avg Cmax): +ve
- hLiMTs <100x Avg Cmaxu ATP ([15]; hLiMTs, ATP endpoint, cut-off <100x Avg Cmaxu): +ve (<100x Avg Cmaxu)
- hLiMTs <25x Avg Cmax HCS ([15]; hLiMTs, HCS endpoints, cut-off <25x Avg Cmax): +ve
- hLiMTs <100x Avg Cmaxu HCS ([15]; hLiMTs, HCS endpoints, cut-off <100x Avg Cmaxu): +ve (<100x Avg Cmaxu)
- hLiMTs <25x Avg Cmax All ([15]; hLiMTs, all endpoints (ATP and HCS), cut-off <25x Avg Cmax): +ve
- hLiMTs Cmax max All ([15]; hLiMTs, all endpoints, Cmax max used): +ve
- hLiMTs Cmax min All ([15]; hLiMTs, all endpoints, Cmax min used): +ve
- hLiMTs <10 uM All ([15]; hLiMTs, all endpoints, cut-off <10 uM): -ve
- hLiMTs <100x Avg Cmaxu All ([15]; hLiMTs, all endpoints, cut-off <100x Avg Cmaxu): +ve (<100x Avg Cmaxu)
- HepaRG <25x Avg Cmax ATP ([16]; HepaRG, ATP endpoint, cut-off <25x Avg Cmax): +ve
- HepaRG <100x Avg Cmaxu ATP ([16]; HepaRG, ATP endpoint, cut-off <100x Avg Cmaxu): +ve (<100x Avg Cmaxu)
- HepaRG <25x Avg Cmax HCS ([16]; HepaRG, HCS endpoints, cut-off <25x Avg Cmax): +ve
- HepaRG <100x Avg Cmaxu HCS ([16]; HepaRG, HCS endpoints, cut-off <100x Avg Cmaxu): +ve (<100x Avg Cmaxu)
- HepaRG <25x Avg Cmax All ([16]; HepaRG, all endpoints (ATP and HCS), cut-off <25x Avg Cmax): +ve
- HepaRG Cmax max All ([16]; HepaRG, all endpoints, Cmax max used): +ve
- HepaRG Cmax min All ([16]; HepaRG, all endpoints, Cmax min used): +ve
- HepaRG <10 uM All ([16]; HepaRG, all endpoints, cut-off <10 uM): -ve
- HepaRG <100x Avg Cmaxu All ([16]; HepaRG, all endpoints, cut-off <100x Avg Cmaxu): +ve (<100x Avg Cmaxu)
- AC50 ([16]; Homo sapiens, HepaRG, read-out: ATP endpoint AC50): 1.63 mM
- minimal effective concentration ([16]; Homo sapiens, HepaRG, read-out: ATP endpoint MEC): 659 µM
- minimal effective concentration ([16]; Homo sapiens, HepaRG, read-out: HCS endpoint MEC): 1340 µM
- DILI prediction HepaRG spheroids (HCS-MEC) [16, 20]: +VE (MEC < 25 × Cmax.tot cut-off)
